The subject of series [1] is Caco-2 cells. In words: bidirectional Caco-2 permeability assay. The format is in vitro ADME. The note with it: for Papp Replicate 1 / Papp Replicate 2: 120 min; for membrane permeability (Caco-2), in words: bidirectional Caco-2 assay. How it is done: Bidirectional Caco-2 Permeability Assay (provided by Cyprotex Discovery Ltd; Cheshire, UK)19 Following a standard Cyprotex procedure, Caco-2 cells (ATCC), used at passages 40–60, were seeded nt ranswe inserts at a densit f × ⁵ ce s/cm² and maintained in with media changes carried out every 2–3 days. Permeability assays were performed between days 18–22 post-seedin . pr cedures were c nducted at ° in a humidified incu at r with O₂. On the day of the assay, monolayers were prepared by rinsing both the apical and basolateral compartments with pre-warmed anks’ a anced a t uti n at the desired pH and incubated with HBSS on both sides for 30 minutes to equilibrate the compartments. The dosing solutions were obtained by diluting the test compounds in assay uffer t a c ncentrati n f with a fina O c ncentrati n f ≤ v/v and Lucifer yellow was included as a fluorescent marker to assess monolayer integrity. Analytical standards were prepared similarly, omitting the Lucifer yellow . For apical-to-basolateral (A– B) measurements, the dosing solution was applied to the apical chamber and buffer to the basolateral side, while the configuration was reversed for basolateral-to-apical (B–A) measurements. After a 120 min incubation, samples from both compartments were collected and diluted for quantification. Permeability was assessed in duplicates, and reference […]
compounds with known characteristics were included as controls. Quantification of test and control compounds was performed by LC-MS/MS using an 8-point calibration curve under Cyprotex standard analytical conditions. The initial concentration (C0) at time zero was determined from the dosing solution, and recovery was calculated based on concentrations […]
The apparent permeability coefficient (Papp) is calculated from the equation (where dQ/dt is the drug permeation rate across the cells, C0 is the concentration in the donor compartment at time zero, and A is the area of the cell monolayer):
Efflux ratio (ER) is calculated from mean A-B and B-A data: […]
Cells were fixed in situ with cold TCA: untreated cells at the time of compound addition (Tz) and treated cells 48 h after addition of compound (Ti). Cells were washed, then su f rh damine s uti n μ at . w/v in acetic acid was added to each well and incubated for 10 minutes at room temperature. After washing again, the plates were air dried and bound stain solubilized with 10 mM Trizma base before absorbance was […]
Percentage growth (%Growth) was calculated as follows:
when Ti ≥ Tz, %Growth = Ti − Tz x 100 where Ti = absorbance from compound treated cells, Tz = absorbance from untreated cells at time zero, and C = absorbance from control (DMSO) treated cells.
HEK293T, MRC5 and LP1 cells were cultured in DMEM (Gibco 41966 -029) containing 10 % or 15 % (LP1) FBS (Gibco 10270106 or Sigma F9665), 1 % non-essential amino acids (MRC5 only, […]
cultured in RPMI 1640 (Gibco 21875-034) containing 10 % FBS and 1 % P/S. All cells were grown in a humidified incubator with 5 % CO 2 at 37 °C.
(In general: Caco-2 cells form a polarised layer with tight junctions and transporters.)

The nature of series [2]: concentration in saturated 12.5% CAPTISOL solution. The note with it: filtered 12.5 w/v% CAPTISOL in water, st. dev. between technical replicates (n=2). The format is physicochemical. On the procedure: was used as the calibration curve. To obtain saturated solutions of the compounds of interest, in duplicates 4.4 µL of a 10 or 5 mM stock in DMSO was added to 436 µL Buffer (PBS, pH = 7.4), to give a final concentration of 100 or 50 µM. Samples were incubated on a shaker (500 rpm) at 37°C for 90 minutes and then filtered (Millex-GV 13 mm, 0.22 µm). 304 µL of the filtrate was mixed with 76 µL of acetonitrile on a dilution plate, from which 350 µL was transferred to a UV-plate and UV-absorption was read using a SpectraMax M5 (Molecular devices). The absorbance was blank-corrected and compared to the calibration curve to […]
solubility. The wavelengths used for the calibration curve are available in Table S4.
Sample preparation in CAPTISOL® […]
lower solubility (2) compounds respectively in a 12.5 w/v% CAPTISOL® solution in water. In a precisely tared vial, required amounts of compounds and CAPTISOL® were weighed out as solids. Based on the known density of 12.5 % CAPTISOL® solution (d = 1.05755 g/mL at 25 °C), the precise weight of the resulting solution and so the required amount of water by weight was calculated. The water was added portion wise with agitation, vortexing and sonication cycles in between additions. The saturated solutions were then filtered (Millex-GV 13 mm, 0.22 µm). In duplicates, aliquots of the filtrates were taken and diluted with blank 12.5 % CAPTISOL® water solution in either a 1:14 (higher sol. compounds) or 1:7 (lower sol. compounds) ratio, 350 µL was transferred to a 96-Well Plate (Greiner, UV-star) then UV absorption (240-400 nm, 10 nm steps) was measured using a SpectraMax M5 (Molecular devices). The absorption was blank-corrected, compared to the calibration curve obtained during the solubility measurement method above and finally corrected for the dilution ratio to obtain the compound concentration in the saturated 12.5 % CAPTISOL® solution. The calculated concentrations are available in Table S4.
BROMOscan™ assays (provided by Eurofins DiscoverX, US)1,2 […]
coli host derived from the BL21 strain. […]

The mark [3] stands for this setting: Direction: A-B (apical-to-basolateral).
[4] abbreviates: Direction: B-A (basolateral-to-apical).

The structures appear in SMILES notation.

As to `CC(=O)Nc1cc(NC(=O)c2ccco2)cc(C(=O)Nc2cccc3nnc(C)cc23)c1` [Compound 1], the “Papp Replicate 1” value in series [1] (setting [3]) is 0.0348 10-6 cms-1; in series [1] (setting [4]), 11.6 10-6 cms-1. The “Papp Replicate 2” value is given as 0.0401 10-6 cms-1 in series [1] (setting [3]) and 11.5 10-6 cms-1 in series [1] (setting [4]). For the same compound, in series [1], the “membrane permeability (Caco-2), in words” value is given as “very low membrane permeability”.

On to `Cc1cc2c(NC(=O)c3cc(NC(=O)c4ccco4)cc(-c4ccn(C)n4)c3)cccc2nn1` [Compound 2], for which, in series [1] (setting [3]), the “Papp Replicate 1” value is on record as 0.565 10-6 cms-1 and the “Papp Replicate 2” value is reported as 0.533 10-6 cms-1. Besides, in series [1] (setting [4]), the “Papp Replicate 1” value is recorded as 28.9 10-6 cms-1 and the “Papp Replicate 2” value is recorded as 29.2 10-6 cms-1. Moreover, the “membrane permeability (Caco-2), in words” value in series [1] is given as “improved cellular permeability”. For the same compound, the “Conc. in 12.5% Captisol sol.” value in series [2] was found to be 160 ± 1 µM.

For `Cc1cc2c(NC(=O)c3cc(NC(=O)[C@H]4CCCO4)cc(-c4ccn(C)n4)c3)cccc2nn1` [Compound 5], in series [1] (setting [3]), the “Papp Replicate 1” value is 0.57 10-6 cms-1 and the “Papp Replicate 2” value is listed as 0.677 10-6 cms-1. Besides, in series [1] (setting [4]), the “Papp Replicate 1” value is 34.2 10-6 cms-1 and the “Papp Replicate 2” value is 30.9 10-6 cms-1. Moreover, in series [1], the “membrane permeability (Caco-2), in words” value is given as “improved cellular permeability”. Also, the “Conc. in 12.5% Captisol sol.” value in series [2] is on record as 790 ± 18 µM.

For the origin of these results see paper PMC12188386, “Selective CBP/EP300 Bromodomain Inhibitors: Novel Epigenetic Tools to Counter TNF-α-Driven Inflammation” (JACS Au, 2025).
